{
  "source": "paper PMC5036131",
  "about": "“Fragment-based discovery of a new family of non-peptidic small-molecule cyclophilin inhibitors with potent antiviral activities” (Nature Communications, 2016)",
  "key": {"CYP2D6": {"molecular_target": "CYP2D6 (Homo sapiens, UniProt P10635)", "sequence (P10635 whole entry)": "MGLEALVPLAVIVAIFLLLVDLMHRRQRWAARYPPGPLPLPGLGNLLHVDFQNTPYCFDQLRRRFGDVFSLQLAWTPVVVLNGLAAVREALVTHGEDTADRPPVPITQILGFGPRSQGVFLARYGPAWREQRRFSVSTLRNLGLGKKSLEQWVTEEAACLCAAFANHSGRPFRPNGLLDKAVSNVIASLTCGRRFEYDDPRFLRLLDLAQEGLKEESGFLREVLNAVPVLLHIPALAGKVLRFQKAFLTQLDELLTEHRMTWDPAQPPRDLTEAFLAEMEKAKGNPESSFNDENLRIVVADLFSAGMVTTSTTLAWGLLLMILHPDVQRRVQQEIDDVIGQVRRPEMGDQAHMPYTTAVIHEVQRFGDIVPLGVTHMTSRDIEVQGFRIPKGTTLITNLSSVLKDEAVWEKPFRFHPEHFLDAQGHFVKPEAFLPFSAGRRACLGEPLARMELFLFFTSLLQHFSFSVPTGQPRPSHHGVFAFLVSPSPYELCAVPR", "experiment": "Cytochrome P450 enzyme inhibition assay, CYP2D6", "format": "in vitro ADME", "parameters": "incubated with human hepatic microsomal fractions and NADPH; from tissue; host or cells: human hepatic microsomal fractions", "conditions": "human hepatic microsomal fractions, up to 25 μM", "description": "(§1) Up to 25 μM of compounds 29 and 30 was incubated with human hepatic microsomal fractions and NADPH in the presence of individual probe substrates. All assays were designed so that conditions were linear with respect to time and protein concentration. Substrates were present at concentrations equal to or lower than their respective Km values. Enzyme selective products were determined by fluorometry (ethoxyresorufin O-deethylase) or by specific LC-MS/MS assays. Relative enzyme activities were determined by comparison with those assayed with DMSO vehicle instead of inhibitor. IC50 values were calculated by nonlinear curve fitting using a sigmoidal model. Positive control inhibitors for each enzyme were tested in parallel."}, "CYP2C8": {"molecular_target": "T1, CYP2C8 (Homo sapiens, UniProt P10632)", "T1 sequence (P10632 1-490)": "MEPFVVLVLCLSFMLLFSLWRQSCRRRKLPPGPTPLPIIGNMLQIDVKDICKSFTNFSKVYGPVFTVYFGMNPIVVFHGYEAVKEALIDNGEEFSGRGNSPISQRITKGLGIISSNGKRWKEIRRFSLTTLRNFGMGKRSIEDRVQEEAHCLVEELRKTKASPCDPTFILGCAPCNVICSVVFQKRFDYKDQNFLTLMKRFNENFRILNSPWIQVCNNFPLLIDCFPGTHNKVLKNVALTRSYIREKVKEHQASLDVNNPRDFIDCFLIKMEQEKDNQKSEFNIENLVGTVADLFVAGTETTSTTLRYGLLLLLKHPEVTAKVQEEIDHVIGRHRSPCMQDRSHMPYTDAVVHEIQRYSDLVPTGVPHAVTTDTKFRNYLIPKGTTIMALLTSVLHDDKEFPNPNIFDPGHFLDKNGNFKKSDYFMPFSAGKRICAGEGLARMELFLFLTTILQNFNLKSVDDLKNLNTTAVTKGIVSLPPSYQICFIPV", "experiment": "Metabolism by recombinant human cytochrome P450, CYP2C8", "format": "in vitro ADME", "conditions": "recombinant enzyme", "description": "[…] of compound was incubated with individual bacterially expressed recombinant human cytochromes P450 co-expressed with human NADPH cytochrome P450 reductase. […] Enzyme-selective positive control substrates were tested in parallel."}, "[1]": {"experiment": "Cell culture medium binding, equilibrium dialysis", "format": "in vitro ADME", "conditions": "2 μM, 37 °C, 3 h dialysis", "description": "The extent of binding to pooled human plasma and to cell culture medium containing 10% fetal bovine serum was determined by equilibrium dialysis against isotonic phosphate buffer. Equilibrium dialysis was conducted at 37 °C with initial concentrations of compounds of 2 μM in the non-buffer matrix. A 3 h dialysis time was used for equilibration. Following dialysis, plasma samples were drained into pre-weighed polypropylene tubes containing buffer and buffer samples were drained into pre-weighed tubes containing blank plasma. Post-dialysis plasma and buffer weights were measured and recorded for concentration and recovery calculations. After precipitation and centrifugation, LC-MS/MS assays were used for the analysis of each of the protein/phosphate buffer-mixed matrices. Relative binding to human plasma and cell culture medium was determined in a similar manner, except that the two matrices were dialysed against each other directly and the compound was spiked into both matrices. After equilibration, the plasma sample was diluted with blank cell culture medium and the cell culture medium diluted with blank plasma."}, "CYP2B6": {"molecular_target": "T2, CYP2B6 (Homo sapiens, UniProt P20813)", "T2 sequence (P20813 1-491)": "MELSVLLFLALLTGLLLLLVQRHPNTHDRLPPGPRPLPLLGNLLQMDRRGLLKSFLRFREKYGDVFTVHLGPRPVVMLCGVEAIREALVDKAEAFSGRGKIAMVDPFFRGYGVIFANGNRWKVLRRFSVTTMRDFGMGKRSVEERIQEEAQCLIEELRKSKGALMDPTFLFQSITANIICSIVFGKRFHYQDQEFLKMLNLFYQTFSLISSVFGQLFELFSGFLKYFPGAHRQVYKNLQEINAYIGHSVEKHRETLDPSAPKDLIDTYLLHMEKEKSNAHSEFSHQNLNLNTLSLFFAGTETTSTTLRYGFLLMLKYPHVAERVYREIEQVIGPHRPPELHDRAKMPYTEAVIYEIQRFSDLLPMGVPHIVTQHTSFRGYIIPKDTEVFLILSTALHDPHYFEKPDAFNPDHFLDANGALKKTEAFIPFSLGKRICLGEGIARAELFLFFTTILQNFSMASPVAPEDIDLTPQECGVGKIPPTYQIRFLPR", "experiment": "Cytochrome P450 enzyme inhibition assay, CYP2B6", "format": "in vitro ADME", "parameters": "incubated with human hepatic microsomal fractions and NADPH; from tissue; host or cells: human hepatic microsomal fractions", "conditions": "human hepatic microsomal fractions, up to 25 μM", "description": "as §1"}, "HCV genotype 1b replicon": {"tested_on": "HCV genotype 1b replicon", "experiment": "microbe, parasite or virus in culture", "format": "cell-based, hepatitis C virus"}, "MT4 cells": {"tested_on": "MT4 cells", "experiment": "Cytotoxicity in uninfected MT4 cells", "conditions": "read-out: MT4 cells CC50"}},
  "note": "Like-named read-outs stand apart in the source and are kept apart here.",
  "data": [
    {"smiles": "CSCCC(NC(=O)NCc1ccc(N)cc1)C(=O)N1CCCC1c1ccccc1SC.O=C(O)C(F)(F)F", "note": "(stereo not drawn) [Compound 30]", "values": [
      {"measurement": "Inhibition of cytochrome P450 activity, IC50 CYD2D6", "setting": "CYP2D6", "value": "Neither compound 29 nor compound 30 significantly inhibited"},
      {"measurement": "IC50", "setting": "CYP2D6; read-out: Inhibition of cytochrome P450 activity, IC50 CYD2D6", "value": "> 25000", "unit": "nM"},
      {"measurement": "Rate of metabolism by human cytochrome P450 CYP2C8", "setting": "CYP2C8", "value": 0.56, "unit": "pmol/pmol P450/min"},
      {"measurement": "Cell culture medium (CCM) binding Unbound", "setting": "[1]", "value": 23.2, "unit": "%"},
      {"measurement": "IC50", "setting": "CYP2B6", "value": "> 25000", "unit": "nM"},
      {"measurement": "Inhibition of cytochrome P450 activity, IC50 CYP2B6", "setting": "CYP2B6", "value": "Neither compound 29 nor compound 30 significantly inhibited"},
      {"measurement": "EC50", "setting": "HCV genotype 1b replicon; Huh7 cells, 3 days, HCV RNA, read-out: HCV genotype 1b replicon EC50", "value": "1400 ± 1200", "unit": "nM"},
      {"measurement": "EC50", "setting": "HCV genotype 1b replicon; wild-type genotype 1b replicon, comparison with mutated replicons (Table 3), read-out: EC50 HCV (WT) subgenomic replicon", "value": "2100 ± 90", "unit": "nM"},
      {"measurement": "CC50", "setting": "MT4 cells", "value": "> 53000", "unit": "nM"}
    ]}
  ]
}
